Measurements taken from US11534441B2, “MAP4K1 inhibitors” (Blueprint Medicines Corporation, priority 2020, dated 2022).
pIC50: −log10 of the molar value.

Molecular target: MAP4K1 (HPK1) (Homo sapiens (Human), UniProt Q92918)
Assay: MAP4K1 (HPK1) biochemical enzymatic activity, electrophoretic mobility shift (EZReader 2), ATP at APPKM (26 μM)
From the text: MAP4K1 (HPK1) and relevant off-target enzymatic activity was monitored using the Perkin Elmer electrophoretic mobility shift technology platform—the EZReader 2. […] Within the linear, steady-state phase of the kinase enzymatic reaction, the mixed pool of phosphorylated (product) and non-phosphorylated (substrate) peptides was passed through the microfluidic system of the PerkinElmer EZ Reader 2, under an applied electric potential difference. The presence of the phosphate group on the product peptide provided a difference in mass and charge between that of the substrate peptide, resulting in a separation of the substrate and product pools in the sample (Perrin et al. 2010). As the product and substrate peptide mixture passes the lasers within the instrument, these pools are detected (λex=488 nm, λent=568 nm) and resolved as separate peaks. The ratio between these peaks reflects the activity of the compound at that concentration, in that well, under those conditions.
Inhibitors were dissolved in 100% DMSO at a stock concentration of 10 mM. A 100×, 10-point, 4-fold serial dilution of each inhibitor was created in 100% DMSO either manually or on a Hamilton STAR liquid handler, starting at a relevant concentration, usually 1 mM. A volume of 0.130 μL of each concentration was transferred to the relevant wells of a 384-well plate (Greiner 781 201) in duplicate using a TTPLabtech Mosquito nano-litre dispenser. Using a Multidrop Combi, the remaining constituents of the kinase reaction were added to the 130 nL of dosed compound as follows (see table below for final reaction details):
Enzyme activity assays at the ^APPKM for ATP or 1 mM ATP: In each well of a 384-well plate, 0.1-15 nM of untreated enzyme was incubated in a total of 13 μL of buffer (100 mM HEPES pH 7.5, 0.015% Brij 35, 10 mM MgCl2, 1 mM DTT) with 1.5 μM fluorescent peptid and 20-1000 μM ATP, at 25° C., for 60-180 minutes in the presence or absence of a dosed concentration series of compound (1% DMSO final concentration). The kinase reactions were stopped by the addition of 70 μl of Stop buffer (100 mM HEPES pH 7.5, 0.015% Brij 35, 35 mM EDTA and 0.2% of Coating Reagent 3 (Caliper Lifesciences)). The plates were read on a Caliper EZReader 2 as described above.

Chain of MAP4K1 (HPK1) (Q92918 whole entry): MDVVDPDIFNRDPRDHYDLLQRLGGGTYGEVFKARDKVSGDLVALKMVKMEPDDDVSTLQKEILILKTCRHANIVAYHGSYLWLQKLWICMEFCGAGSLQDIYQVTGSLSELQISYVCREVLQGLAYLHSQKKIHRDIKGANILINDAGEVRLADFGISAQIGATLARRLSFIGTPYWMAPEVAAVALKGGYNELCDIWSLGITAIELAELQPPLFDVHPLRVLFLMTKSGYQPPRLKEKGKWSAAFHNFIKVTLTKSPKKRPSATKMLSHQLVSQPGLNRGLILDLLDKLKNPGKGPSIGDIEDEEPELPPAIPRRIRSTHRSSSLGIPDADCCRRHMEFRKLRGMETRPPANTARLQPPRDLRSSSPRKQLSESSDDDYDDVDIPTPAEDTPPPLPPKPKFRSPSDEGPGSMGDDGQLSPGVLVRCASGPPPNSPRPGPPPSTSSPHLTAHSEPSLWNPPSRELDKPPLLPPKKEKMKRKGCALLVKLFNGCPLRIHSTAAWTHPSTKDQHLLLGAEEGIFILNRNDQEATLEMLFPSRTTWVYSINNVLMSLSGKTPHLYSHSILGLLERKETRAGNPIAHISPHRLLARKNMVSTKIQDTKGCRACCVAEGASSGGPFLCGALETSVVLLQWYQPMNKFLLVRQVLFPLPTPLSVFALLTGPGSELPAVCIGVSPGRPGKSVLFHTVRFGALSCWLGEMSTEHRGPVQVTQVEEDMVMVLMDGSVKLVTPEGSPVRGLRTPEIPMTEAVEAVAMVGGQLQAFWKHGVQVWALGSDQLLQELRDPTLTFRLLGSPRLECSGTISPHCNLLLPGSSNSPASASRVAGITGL

SMILES | pIC50 (class designation) | pIC50 (numeric value)
C[C@@H]1OC(=O)c2ccc(Nc3cc4c([C@@](C)(N)C5CC5)cnc(O[C@H]5C[C@H](O)C5)c4cn3)nc2[C@H]1C (relative stereo) [Compound 193, (7S,8R)-2-((5-((R)-1-Amino-1-cyclopropylethyl)-8-((trans)-3-hydroxycyclobutoxy)-2,7-naphthyridin-3-yl)amino)-7,8-dimethyl-7,8-dihydro-5H-pyrano[4,3-b]pyridin-5-one and (7S,8R)-2-((5-((S)-1-amino-1-cyclopropylethyl)-8-((trans)-3-hydroxycyclobutoxy)-2,7-naphthyridin-3-yl)amino)-7,8-dimethyl-7,8-dihydro-5H-pyrano[4,3-b]pyridin-5-one] | > 9.52 | 10.00
CC[C@H](F)c1nc(Nc2cc3c(C(C)(C)N)cnc(OC)c3cn2)cnc1C#N (single isomer, unassigned) [Compound 30] | 8.00 to 8.96 | 8.45
CC[C@@H](F)c1nc(Nc2cc3c(C(C)(C)N)cnc(OC)c3cn2)cnc1C#N (single isomer, unassigned) [Compound 31] | 8.00 to 8.96 | 8.23
CC[C@](C)(N)c1cnc(OC)c2cnc(Nc3ccc4c(n3)CC(C)(C)OC4=O)cc12 (single isomer, unassigned) [Compound 62] | 9.00 to 9.51 | 9.26
C[C@](N)(c1cnc(OC2CC2)c2cnc(Nc3ccc4c(n3)CCOC4=O)cc12)C1CC1 (single isomer, unassigned) [Compound 108] |  | 9.01
C[C@@H]1OC(=O)c2ccc(Nc3cc4c(C(C)(N)CO)cnc(OC5CC5)c4cn3)nc2[C@H]1C (single isomer, unassigned) [Compound 139, (7S,8R)-2-((5-((R)-2-Amino-1-hydroxypropan-2-yl)-8-cyclopropoxy-2,7-naphthyridin-3-yl)amino)-7,8-dimethyl-7,8-dihydro-5H-pyrano[4,3-b]pyridin-5-one or (7S,8R)-2-((5-((S)-2-amino-1-hydroxypropan-2-yl)-8-cyclopropoxy-2,7-naphthyridin-3-yl)amino)-7,8-dimethyl-7,8-dihydro-5H-pyrano[4,3-b]pyridin-5-one] | 8.00 to 8.96 | 8.65
C[C@@H]1OC(=O)c2ccc(Nc3cc4c([C@](C)(N)CO)cnc(OC5CC5)c4cn3)nc2[C@H]1C (single isomer, unassigned) [Compound 140, (7S,8R)-2-((5-((R)-2-Amino-1-hydroxypropan-2-yl)-8-cyclopropoxy-2,7-naphthyridin-3-yl)amino)-7,8-dimethyl-7,8-dihydro-5H-pyrano[4,3-b]pyridin-5-one or (7S,8R)-2-((5-((S)-2-amino-1-hydroxypropan-2-yl)-8-cyclopropoxy-2,7-naphthyridin-3-yl)amino)-7,8-dimethyl-7,8-dihydro-5H-pyrano[4,3-b]pyridin-5-one] | < 8.00 | 
CC1(C)Cc2nc(Nc3cc4c([C@](C)(N)C5CC5)cnc(OC5CC5)c4cn3)ccc2C(=O)N1 (single isomer, unassigned) [Compound 148] |  | 9.96
CC1(C)Cc2nc(Nc3cc4c([C@@](C)(N)C5CC5)cnc(OC5CC5)c4cn3)ccc2C(=O)O1 (single isomer, unassigned) [Compound 153] |  | 8.58
C[C@H](Oc1ncc(C(C)(C)N)c2cc(Nc3ccc4c(n3)CC(C)(C)OC4=O)ncc12)C(F)F (single isomer, unassigned) [Compound 164] | 8.00 to 8.96 | 8.13
C[C@@H](Oc1ncc(C(C)(C)N)c2cc(Nc3ccc4c(n3)CC(C)(C)OC4=O)ncc12)C(F)F (single isomer, unassigned) [Compound 165] | 8.00 to 8.96 | 8.90
CC[C@](C)(N)c1cnc(OCC(F)(F)F)c2cnc(Nc3ccc4c(n3)C(C)(C)OC4=O)cc12 (single isomer, unassigned) [Compound 173] | 8.00 to 8.96 | 8.76
CC[C@@](C)(N)c1cnc(OCC(F)(F)F)c2cnc(Nc3ccc4c(n3)C(C)(C)OC4=O)cc12 (single isomer, unassigned) [Compound 175] | < 8.00 | 7.45
C[C@@H](Oc1ncc(C(C)(C)N)c2cc(Nc3ccc4c(n3)CC(C)(C)OC4=O)ncc12)C(F)(F)F (single isomer, unassigned) [Compound 179] | 8.00 to 8.96 | 8.67
C[C@H](Oc1ncc(C(C)(C)N)c2cc(Nc3ccc4c(n3)CC(C)(C)OC4=O)ncc12)C(F)(F)F (single isomer, unassigned) [Compound 180] | < 8.00 | 7.81
CC[C@@H](N)c1ccc(OC)c2cnc(Nc3ccc4c(n3)C3(CC3)C(C)(C)OC4=O)cc12 (single isomer, unassigned) [Compound 207, (S)-2′-((5-(1-Aminopropyl)-8-methoxyisoquinolin-3-yl)amino)-7′,7′-dimethyl-5′H,7′H-spiro[cyclopropane-1,8′-pyrano[4,3-b]pyridin]-5′-one or (R)-2′-((5-(1-aminopropyl)-8-methoxyisoquinolin-3-yl)amino)-7′,7′-dimethyl-5′H,7′H-spiro[cyclopropane-1,8′-pyrano[4,3-b]pyridin]-5′-one] | > 9.52 | 9.66
COc1ncc([C@H](C)N)c2cc(Nc3ccnc(C(C)(C)F)n3)ncc12 (stereo in doubt) [Compound 1, 5-(1-Aminoethyl)-N-(2-(2-fluoropropan-2-yl)pyrimidin-4-yl)-8-methoxy-2,7-naphthyridin-3-amine] | < 8.00 | 7.67
COc1ncc(C(C)(C)N)c2cc(Nc3ccnc(OC(C)C)n3)ncc12 [Compound 4] | 9.00 to 9.51 | 9.38
CNc1ncc(C(C)(C)N)c2cc(Nc3ccnc(C(C)(C)F)n3)ncc12 [Compound 6, 4-(2-Aminopropan-2-yl)-N6-(2-(2-fluoropropan-2-yl)pyrimidin-4-yl)-N1-methyl-2,7-naphthyridine-1,6-diamine] | 8.00 to 8.96 | 8.48
CNc1ncc(C(C)(C)N)c2cc(Nc3cnc(C#N)c(C(C)C)n3)ncc12 [Compound 8, 5-((5-(2-Aminopropan-2-yl)-8-(methylamino)-2,7-naphthyridin-3-yl)amino)-3-isopropylpyrazine-2-carbonitrile] | < 8.00 | 7.95
COc1ncc(C(C)(C)N)c2cc(Nc3cnc(C#N)c(C(C)C)n3)ncc12 [Compound 10] | 8.00 to 8.96 | 8.56
CCOc1ncc(C(C)(C)N)c2cc(Nc3ccnc(C(C)(C)F)n3)ncc12 [Compound 16] | 8.00 to 8.96 | 8.60
CNC(C)(C)c1cnc(OC)c2cnc(Nc3ccnc(C(C)(C)F)n3)cc12 [Compound 17, N-(2-(2-Fluoropropan-2-yl)pyrimidin-4-yl)-8-methoxy-5-(2-(methylamino)propan-2-yl)-2,7-naphthyridin-3-amine] | 8.00 to 8.96 | 8.40
CC[C@@H](C)c1nc(Nc2cc3c(C(C)(C)N)cnc(OC)c3cn2)ccc1C#N [Compound 18] | 9.00 to 9.51 | 9.40
COc1ncc(C(C)(C)N)c2cc(Nc3ccnc(N4CCC[C@@H]4C)n3)ncc12 [Compound 27] | > 9.52 | 9.52
COc1ncc(C(C)(C)N)c2cc(Nc3cnc(C#N)c(C(C)(C)F)n3)ncc12 [Compound 29] | 8.00 to 8.96 | 8.40
COc1ncc(C(C)(C)N)c2cc(Nc3cnc4c(n3)CC(C)(C)OC4=O)ncc12 [Compound 47] | < 8.00 | 7.87
